Values joined by “and” are separate entries in the source; they are usually repeats but may differ in a detail not shown here. Equal values may be shown once.
Assays:
[1] = system: Lactobacillus zeae (ATCC 15820); assay: Glucose Uptake Index of Lactobacillus zeae culture with ionic liquid; format: cell-based; details: 5% (v/v) of the ionic liquid phase, MRS medium, 30° C., 16 hours after addition
Protocol: This media was made per bottle instructions using sterilized water, and was then again filter sterilized before use. The test tubes were incubated at 30° C. at 175 rpm in an Inova Incubator (Karlsbad, Sweden). After 24 hours, the test tubes were removed and stored at 4° C.
A portion (50 μL) of each stock culture prepared as above was inoculated into separate 15 mL sterile polypropylene culture tubes containing fresh MRS medium (3 mL). These tubes were incubated for four hours at 30° C. at 175 rpm. After four hours, one of these culture tubes was inoculated with 150 μL (5% v/v) of each of the ionic liquids as listed in Table 1 below. […] Each tube that was inoculated with an ionic liquid was also paired with a tube that received no ionic liquid and was used as a control.
All culture tubes were then incubated again under the same conditions for another 16 hours. After 16 hours, the culture tubes were stored at −80° C. Analytical samples were taken from each culture tube by thawing the samples and spinning them at 28,000 rpm and 20° C. for ten minutes in a Sorvall Instruments RC3C (Newtown Conn.) centrifuge. One milliliter of supernatant was removed from each tube and was subjected to high performance liquid chromatography (HPLC) analysis using an Agilent (Palo Alto Calif.) HPLC 1100 with a BioRad Aminex 87-H using 0.008 N sulfuric acid with both diode array and refractive index detection, and an Agilent HPLC 1100 with a Shodex OH-pak column using 0.01 N sulfuric acid. Data analysis was performed using the Agilent Chemstation software and Microsoft Excel.
The glucose uptake index was calculated by taking the total glucose consumed in a fermentation sample, whether or not the sample contained an ionic liquid, and dividing it by the total initial glucose present in the broth at the start of fermentation.

[2] = system: Lactobacillus fermentum (ATCC 14931); assay: Glucose Uptake Index of Lactobacillus fermentum culture with ionic liquid; format: cell-based; details: 5% (v/v) of the ionic liquid phase, MRS medium, 30° C., 16 hours after addition
[3] = Extraction of ethanol from an aqueous solution by ionic liquid; details: for Ethanol Remaining in Solution: aqueous solution about 31 g/L ethanol; for Ethanol Remaining in Solution / Ethanol Extracted: 5 vol % ionic liquid; for Ethanol Remaining in Solution / Ethanol: overnight equilibration, HPLC; for Ethanol: ethanol concentration in aqueous solution (about 31 g/L at start) after mixing with 5 vol % ionic liquid; for Ethanol Extracted: percentage relative to control without ionic liquid (Example 31)
[4] = Extraction of isobutanol from an aqueous solution by ionic liquid; details: for Isobutanol Remaining in Solution: aqueous solution about 31 g/L isobutanol; for Isobutanol Remaining in Solution / Isobutanol Extracted: 5 vol % ionic liquid; for Isobutanol Remaining in Solution / Isobutanol: overnight equilibration, HPLC; for Isobutanol: isobutanol concentration in aqueous solution (about 31 g/L at start) after mixing with 5 vol % ionic liquid; for Isobutanol Extracted: percentage relative to control without ionic liquid (Example 31)
Protocol: Ethanol and isobutanol concentration in the solution was measured using HPLC as described above following thorough mixing and overnight equilibration of the contents of the vial.

Row | Molecule | GUI of Sample (Glucose Utilization Index) [1] | GUI of Sample (Glucose Utilization Index) [2] | Ethanol Remaining in Solution [3] [g/L] | Ethanol [3] [mM] | Ethanol Extracted [3] [%] | Isobutanol Remaining in Solution [4] [g/L] | Isobutanol [4] [mM] | Isobutanol Extracted [4] [%]
1 | 1-butyl-3-methylimidazolium 1,1,2,3,3,3-hexafluoropropanesulfonate [[BMIM] [HFPS]] | 21.2 and 34.3 | 8.0 and 11.5 |  |  |  |  |  | 
2 | 1-butyl-3-methylimidazolium 1,1,2-trifluoro-2-(perfluoroethoxy)ethanesulfonate [[BMIM] [TPES]] | 5.06 | 7.21 |  |  |  |  |  | 
3 | 1-butyl-3-methylimidazolium 1,1,2-trifluoro-2-(trifluoromethoxy)ethanesulfonate [[BMIM] [TTES]] | 58.8 | 16.2 |  |  |  |  |  | 
4 | 1-butyl-3-methylimidazolium 2-(1,2,2,2-tetrafluoroethoxy)-1,1,2,2-tetrafluoroethanesulfonate [[BMIM] [FS]] | 54.4 | 24.0 |  |  |  |  |  | 
5 | 1-butyl-3-methylimidazolium bis(trifluoromethylsulfonyl)imide [[BMIM] [Tf2N]] | 64.4 | 26.8 |  |  |  |  |  | 
6 | 1-butyl-3-methylpyrrolidinium bis(trifluoromethylsulfonyl)imide [[BMP] [Tf2N]] | 49.8 | 0.96 | 31.1 | 676 | 1.17 | 29.0 | 391 | 6.33
7 | 1-ethyl-3-methylimidazolium bis(pentafluoroethylsulfonyl)imide [[EMIM] [BEI]] | 36.0 | 25.5 |  |  |  |  |  | 
8 | 1-ethyl-3-methylimidazolium bis(trifluoromethylsulfonyl)imide [[EMIM] [Tf2N]] | 51.2 | 54.5 | 30.9 | 670 | 1.96 | 28.8 | 389 | 7.11
9 | 1-hexyl-3-methylimidazolium bis(trifluoromethylsulfonyl)imide [[HMIM] [Tf2N]] | 66.2 | 19.5 | 31.3 | 678 | 0.76 | 28.8 | 388 | 7.28
10 | 3-methyl-1-propylpyridinium bis(trifluoromethylsulfonyl)imide [[PMPy] [Tf2N]] | 63.5 | 26.1 |  |  |  |  |  | 
11 | CCCCn1cc[n+](C)c1.F[B-](F)(F)F [[BMIM] [BF4], 1-butyl-3-methylimidazolium tetrafluoroborate] | 11.8 |  |  |  |  |  |  | 
12 | CCCCn1cc[n+](C)c1.F[P-](F)(F)(F)(F)F [[BMIM] [PF6], 1-butyl-3-methylimidazolium hexafluorophosphate] | 55.4 |  |  |  |  |  |  | 
13 | CCCCCCn1cc[n+](C)c1.FC(F)(F)C(F)(F)[P-](F)(F)(F)(C(F)(F)C(F)(F)F)C(F)(F)C(F)(F)F [[HMIM] [FAP], 1-hexyl-3-methylimidazolium tris(pentafluoroethyl)trifluorophosphate] | 51.9 | 84.7 |  | 680 | 0.45 |  | 404 | 3.14
14 | tetradecyl(tri-n-hexyl)phosphonium 1,1,2-trifluoro-2-(perfluoroethoxy)ethanesulfonate [[6,6,6,14-P] [TPES]] | 62.8 | 92.8 |  |  |  |  |  | 
